Experiments:
[1] = system: K562 nude mice transplanted tumor; test: Inhibition of growth of K562 nude mice transplanted tumor (pre-trial, experiment 1, experiment 2); assay type: in vivo, Balb/c nude mice; details: for tumor sizes: n=6
Text: 2.4 K562 cell: primary K562 cell is derived from bone marrow of a patient having leukemia, introduced by Blood Research Institute from abroad, stored and passaged in Pathologic Cell Bank; cultured in RPMI1640 medium (comprising 10% fetal bovine serum).
2.6 experimental animal: Balb/c nude mice, 4~5 weeks old, weight: 17~20 g, gender: half male and half female. Experimental Animal Institute of the Chinese Academy of Medical Sciences, certification number of experimental animals: SCXK (JING) 2005-0013.
3.1.1 Balb/c nude mice were subjected to 3.0Gy whole-body irradiation, after subcutaneous inoculation of primary K562 cells. About 4 weeks after inoculation, tumor masses in growing were removed and transplanted into […], and this process was repeated for 2~3 passages to establish high oncogenic K562 cell line.
(§1) 3.1.2 Nude mice were subjected to 3.0Gy whole-body irradiation, after subcutaneous inoculation of the K562 cells. One week after inoculation, nude mice with visible tumors were divided into the following 4 groups each consisting of 6 animals. The following dosages were administered for 3 continuous weeks, with 7 doses per week, a total of 21 doses.
Model control group: intraperitoneal injection of 20% aqueous solution of excipient at 0.2 ml/animal.
High dosage group: intraperitoneal injection of artemether at 150 ml/kg.
Middle dosage group: intraperitoneal injection of artemether at 100 ml/kg.
Low dosage group: intraperitoneal injection of artemether at 50 ml/kg.
(§2) Nude mice were subjected to a 3.0Gy whole-body irradiation, after subcutaneous inoculation of the K562 cells. One week after inoculation, nude mice with visible tumors were divided into the following 5 groups each consisting of 6 animals. The following dosages were administered for 3 continuous weeks, with 5 doses per week, a total of 15 doses.
Positive control group: intraperitoneal injection of cyclophosphamide at 10 ml/kg.
High dosage group: intraperitoneal injection of artemether at 100 ml/kg.
Middle dosage group: intraperitoneal injection of artemether at 60 ml/kg.
Low dosage group: intraperitoneal injection of artemether at 40 ml/kg.
(§3) Nude mice were subjected to a 3.0Gy whole-body irradiation, after subcutaneous inoculation of the K562 cells. One week after inoculation, nude mice with visible tumors were divided into the following 5 groups each consisting of 6 nude mice.
Model control group: intraperitoneal injection of 20% solution of excipient at 0.2ml/animal. The dosage was administered for 3 weeks, with 7 doses per week, a total of 21 doses.
Positive control group: intraperitoneal injection of cyclophosphamide at 10 ml/kg. The dosage was administered for 3 weeks, with 7 doses per week, a total of 21 doses.
(§4) High dosage group: intraperitoneal injection of artemether at 100 ml/kg. The dosage was administered for 3 weeks, with 5 doses per week, a total of 15 doses.
(§5) Middle dosage group: intraperitoneal injection of artemether at 60 ml/kg. The dosage was administered for 3 weeks, with 7 doses per week, a total of 21 doses.
(§6) Low dosage group: intraperitoneal injection of artemether at 40 ml/kg. The dosage was administered for 3 weeks, with 7 doses per week, a total of 21 doses.

[2] = mouse, in vivo
Protocol: as §2, §3, §4, §5, §6

[3] = system: K562 nude mice transplanted tumor; test: Apoptosis of tumor cells from tumor-bearing animals (pre-trial); assay type: in vivo, Balb/c nude mice; details: 21 doses
Protocol: as §1
The effect of the drug on the apoptosis of the tumor cell: from the result of pre-trial (table 3), it appears that the apoptosis ratio in control group is higher than that in the treated group. In fact, this is because the tutor of control group grows more rapidly, has a larger volume, and thus a more significant necrosis. […] However, cells which are not inhibited by the drug form a tumor mass that are not different much from the tumor mass in control group. Therefore, in a mechanism study, tumor cells in vivo should not be used, and an in vitro test is preferred.

Compound: CO[C@H]1O[C@@H]2O[C@@]3(C)CC[C@H]4[C@H](C)CC[C@@H]([C@H]1C)[C@@]24OO3 [artemether]
- tumor sizes ([1]; experiment 1, High dosage group: artemether 100 ml/kg intraperitoneal, 15 doses in 3 weeks, 1 week after inoculation): 55.6±11.4 mm3
- tumor sizes ([1]; experiment 1, High dosage group: artemether 100 ml/kg intraperitoneal, 15 doses in 3 weeks, 2 weeks after inoculation): 72.9±70.8 mm3
- tumor sizes ([1]; experiment 1, High dosage group: artemether 100 ml/kg intraperitoneal, 15 doses in 3 weeks, 3 weeks after inoculation): 307.9±223.2 mm3
- tumor sizes ([1]; experiment 1, High dosage group: artemether 100 ml/kg intraperitoneal, 15 doses in 3 weeks, 4 weeks after inoculation): 489.2±199.9 mm3
- tumor mass ([1]; experiment 1, High dosage group: artemether 100 ml/kg intraperitoneal, 15 doses, 4 weeks after inoculation): 340.0 ± 237.6 mg
- tumor sizes ([1]; experiment 1, Low dosage group: artemether 40 ml/kg intraperitoneal, 15 doses in 3 weeks, 1 week after inoculation): 42.0±9.0 mm3
- tumor sizes ([1]; experiment 1, Low dosage group: artemether 40 ml/kg intraperitoneal, 15 doses in 3 weeks, 2 weeks after inoculation): 148.4±75.6 mm3
- tumor sizes ([1]; experiment 1, Low dosage group: artemether 40 ml/kg intraperitoneal, 15 doses in 3 weeks, 3 weeks after inoculation): 432.6±332.5 mm3
- tumor sizes ([1]; experiment 1, Low dosage group: artemether 40 ml/kg intraperitoneal, 15 doses in 3 weeks, 4 weeks after inoculation): 1127.7±142.8 mm3
- tumor mass ([1]; experiment 1, Low dosage group: artemether 40 ml/kg intraperitoneal, 15 doses, 4 weeks after inoculation): 1135.0 ± 457.2 mg
- tumor sizes ([1]; experiment 1, Middle dosage group: artemether 60 ml/kg intraperitoneal, 15 doses in 3 weeks, 1 week after inoculation): 51.3±4.5 mm3
- tumor sizes ([1]; experiment 1, Middle dosage group: artemether 60 ml/kg intraperitoneal, 15 doses in 3 weeks, 2 weeks after inoculation): 127.5±22.3 mm3
- tumor sizes ([1]; experiment 1, Middle dosage group: artemether 60 ml/kg intraperitoneal, 15 doses in 3 weeks, 3 weeks after inoculation): 376.7±135.8 mm3
- tumor sizes ([1]; experiment 1, Middle dosage group: artemether 60 ml/kg intraperitoneal, 15 doses in 3 weeks, 4 weeks after inoculation): 1035.6±248.5 mm3
- tumor mass ([1]; experiment 1, Middle dosage group: artemether 60 ml/kg intraperitoneal, 15 doses, 4 weeks after inoculation): 736.7 ± 247.6 mg
- tumor sizes ([1]; experiment 2, High dosage group: artemether 100 ml/kg intraperitoneal, 15 doses in 3 weeks, 1 week after inoculation): 33.9±14.4 mm3
- tumor sizes ([1]; experiment 2, High dosage group: artemether 100 ml/kg intraperitoneal, 15 doses in 3 weeks, 2 weeks after inoculation): 75.5±27.2 mm3
- tumor sizes ([1]; experiment 2, High dosage group: artemether 100 ml/kg intraperitoneal, 15 doses in 3 weeks, 3 weeks after inoculation): 137.1±101.6 mm3
- tumor sizes ([1]; experiment 2, High dosage group: artemether 100 ml/kg intraperitoneal, 15 doses in 3 weeks, 4 weeks after inoculation): 291.7±191.5 mm3
- tumor mass ([1]; experiment 2, High dosage group: artemether 100 ml/kg intraperitoneal, 15 doses, 4 weeks after inoculation): 230 ± 1153.4 mg
- tumor sizes ([1]; experiment 2, Low dosage group: artemether 40 ml/kg intraperitoneal, 21 doses in 3 weeks, 1 week after inoculation): 26.7±5.9 mm3
- tumor sizes ([1]; experiment 2, Low dosage group: artemether 40 ml/kg intraperitoneal, 21 doses in 3 weeks, 2 weeks after inoculation): 203.7±127.3 mm3
- tumor sizes ([1]; experiment 2, Low dosage group: artemether 40 ml/kg intraperitoneal, 21 doses in 3 weeks, 3 weeks after inoculation): 297.4±86.6 mm3
- tumor sizes ([1]; experiment 2, Low dosage group: artemether 40 ml/kg intraperitoneal, 21 doses in 3 weeks, 4 weeks after inoculation): 729.2±272.8 mm3
- tumor mass ([1]; experiment 2, Low dosage group: artemether 40 ml/kg intraperitoneal, 21 doses, 4 weeks after inoculation): 645 ± 314.7 mg
- tumor sizes ([1]; experiment 2, Middle dosage group: artemether 60 ml/kg intraperitoneal, 21 doses in 3 weeks, 1 week after inoculation): 22.7±7.4 mm3
- tumor sizes ([1]; experiment 2, Middle dosage group: artemether 60 ml/kg intraperitoneal, 21 doses in 3 weeks, 2 weeks after inoculation): 118.4±129.0 mm3
- tumor sizes ([1]; experiment 2, Middle dosage group: artemether 60 ml/kg intraperitoneal, 21 doses in 3 weeks, 3 weeks after inoculation): 201.2±98.9 mm3
- tumor sizes ([1]; experiment 2, Middle dosage group: artemether 60 ml/kg intraperitoneal, 21 doses in 3 weeks, 4 weeks after inoculation): 746.6±393.7 mm3
- tumor mass ([1]; experiment 2, Middle dosage group: artemether 60 ml/kg intraperitoneal, 21 doses, 4 weeks after inoculation): 630 ± 418.9 mg
- inhibition ratio ([1]; of tumor mass, experiment 1, Low dosage group: artemether 40 ml/kg intraperitoneal, 15 doses, 4 weeks after inoculation, listed as artemether lyophilized powder for injection): no significant inhibition
- inhibition ratio ([1]; of tumor mass, experiment 1, Middle dosage group: artemether 60 ml/kg intraperitoneal, 15 doses, 4 weeks after inoculation, listed as artemether lyophilized powder for injection): 31%
- inhibition ratio ([1]; of tumor mass, experiment 2, Low dosage group: artemether 40 ml/kg intraperitoneal, 21 doses, 4 weeks after inoculation, listed as artemether lyophilized powder for injection): 55%
- inhibition ratio ([1]; of tumor mass, experiment 2, Middle dosage group: artemether 60 ml/kg intraperitoneal, 21 doses, 4 weeks after inoculation, listed as artemether lyophilized powder for injection): 56%
- inhibition ratio ([1]; of tumor mass, pre-trial, Low dosage group: artemether 50 ml/kg intraperitoneal, 21 doses, 4 weeks after administration): 41.1%
- inhibition ratio ([1]; of tumor mass, pre-trial, Middle dosage group: artemether 100 ml/kg intraperitoneal, 21 doses, 4 weeks after administration): 64.9%
- inhibition ratio ([1]; of tumor volume, pre-trial, Low dosage group: artemether 50 ml/kg intraperitoneal, 21 doses, 3 weeks after administration): 43.6%
- inhibition ratio ([1]; of tumor volume, pre-trial, Low dosage group: artemether 50 ml/kg intraperitoneal, 21 doses, 4 weeks after administration): 44.6%
- inhibition ratio ([1]; of tumor volume, pre-trial, Middle dosage group: artemether 100 ml/kg intraperitoneal, 21 doses, 3 weeks after administration): 70.3%
- inhibition ratio ([1]; of tumor volume, pre-trial, Middle dosage group: artemether 100 ml/kg intraperitoneal, 21 doses, 4 weeks after administration): 69.1%
- tumor volume ([1]; pre-trial, High dosage group: artemether 150 ml/kg intraperitoneal, 21 doses in 3 weeks, 1 week after administration): 55.3 mm3
- tumor volume ([1]; pre-trial, High dosage group: artemether 150 ml/kg intraperitoneal, 21 doses in 3 weeks, 2 weeks after administration): 136.8 mm3
- tumor volume ([1]; pre-trial, High dosage group: artemether 150 ml/kg intraperitoneal, 21 doses in 3 weeks, 3 weeks after administration): 454.1 mm3
- tumor volume ([1]; pre-trial, High dosage group: artemether 150 ml/kg intraperitoneal, 21 doses in 3 weeks, 4 weeks after administration): 663.1 mm3
- tumor mass ([1]; pre-trial, High dosage group: artemether 150 ml/kg intraperitoneal, 21 doses, 4 weeks after administration): 590 mg
- tumor volume ([1]; pre-trial, Low dosage group: artemether 50 ml/kg intraperitoneal, 21 doses in 3 weeks, 1 week after administration): 174.9±74.7 mm3
- tumor volume ([1]; pre-trial, Low dosage group: artemether 50 ml/kg intraperitoneal, 21 doses in 3 weeks, 2 weeks after administration): 535.5±253.42 mm3
- tumor volume ([1]; pre-trial, Low dosage group: artemether 50 ml/kg intraperitoneal, 21 doses in 3 weeks, 3 weeks after administration): 997.1±327.71 mm3
- tumor volume ([1]; pre-trial, Low dosage group: artemether 50 ml/kg intraperitoneal, 21 doses in 3 weeks, 4 weeks after administration): 1672.0 ± 331.0 mm3
- tumor mass ([1]; pre-trial, Low dosage group: artemether 50 ml/kg intraperitoneal, 21 doses, 4 weeks after administration): 1436 ± 281.3 mg
- tumor volume ([1]; pre-trial, Middle dosage group: artemether 100 ml/kg intraperitoneal, 21 doses in 3 weeks, 1 week after administration): 93.6±43.6 mm3
- tumor volume ([1]; pre-trial, Middle dosage group: artemether 100 ml/kg intraperitoneal, 21 doses in 3 weeks, 2 weeks after administration): 219.9 ± 110.83 mm3
- tumor volume ([1]; pre-trial, Middle dosage group: artemether 100 ml/kg intraperitoneal, 21 doses in 3 weeks, 3 weeks after administration): 524.6±265.57 mm3
- tumor volume ([1]; pre-trial, Middle dosage group: artemether 100 ml/kg intraperitoneal, 21 doses in 3 weeks, 4 weeks after administration): 931.8±307.9 mm3
- tumor mass ([1]; pre-trial, Middle dosage group: artemether 100 ml/kg intraperitoneal, 21 doses, 4 weeks after administration): 857 ± 574.4 mg
- toxicity [2]: without toxicity
- apoptosis ratio ([3]; High dosage group: artemether 150 intraperitoneal): 2.63%
- apoptosis ratio ([3]; Low dosage group: artemether 50 intraperitoneal): 1.37±0.47%
- apoptosis ratio ([3]; Middle dosage group: artemether 100 intraperitoneal): 2.04 ±1.58%
